The record followed here is ChEMBL document CHEMBL1201862, “PubChem BioAssay data set” (2004).

Experiment in all cases: NCI anticancer screen, dose series, 48 h
The test system of assay [1] is ACHN.
For assay [2], the system named is BT-549.
For assay [3], the system named is HCC 2998.
The subject of assay [4] is HCT-15.
The test system of assay [5] is HT-29.
Assay [6] concerns IGROV-1.
The test system of assay [7] is LOX IMVI.
Assay [8] concerns MDA-N.
Assay [9] concerns Malme-3M.
For assay [10], the system named is NCI-H460.
Assay [11] relates to NCI-H522.
The subject of assay [12] is NCI/ADR-RES.
For assay [13], the system named is OVCAR-8.
In assay [14] the test system is SK-MEL-28.
In assay [15] the test system is SK-MEL-2.
The subject of assay [16] is UACC-62.
In assay [17] the test system is UO-31.
Assay [18] concerns RXF 393.
Assay [19] has as its system SNB-75.
Assay [20] concerns TK-10.

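1) Cells in 96-well plates. 2) Compound, 48 h, 5 concentrations. 3) Linear interpolation between surrounding doses. 4) Unreached endpoint = highest concentration. At the GI50, growth is halved.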 The source made the active and inactive calls. Rule as the data show it: active = GI50 up to about 1.1 µM and inactive = higher. Bounds are passed on as bounds.

For the compound `CC[C@]1(O)C[C@H]2CN(CCc3c([nH]c4ccccc34)[C@@](C(=O)OC)(c3cc4c(cc3OC)N(C)[C@H]3[C@@](O)(C(=O)OC)[C@H](OC(C)=O)[C@]5(CC)C=CCN6CC[C@]43[C@@H]65)C2)C1`, the GI50 in assay [1] is 0.00849 µM (active); in assay [2] it was 0.00126 µM (active); in assay [3], 0.000959 µM (active); in assay [4], 0.0241 µM; in assay [5], 0.000408 µM (active); in [6], 0.00129 µM (active). For the same compound, the GI50 is 0.000538 µM (active) in [7]; 0.000476 µM (active) in assay [8]; 0.000557 µM (active) in assay [9]; 0.000629 µM (active) in assay [10]; 0.000309 µM (active) in assay [11]; 0.115 µM (active) in assay [12]. The GI50 in [13] was 0.00129 µM (active); in assay [14], 0.00165 µM (active); in assay [15], 0.000762 µM (active); in [16] it was 0.000373 µM (active); in [17] it was 0.143 µM (active).

As to `Cc1c[n+]([O-])c2ccccc2[n+]1[O-]`, the GI50 in assay [1] is > 100 µM (inactive); in assay [2], > 100 µM (inactive); in assay [4], greater than 100 µM; in assay [5], > 100 µM (inactive); in assay [6], > 100 µM (inactive); in [7], > 100 µM (inactive). In addition, the GI50 in [8], in assay [9], in assay [10], in [11], in assay [12] and in [13] was > 100 µM (inactive) throughout. For the same compound, the GI50 in assay [18], in assay [14], in assay [15], in assay [19], in assay [20] and in assay [16] was > 100 µM (inactive) each time. Moreover, the GI50 in assay [17] is > 100 µM (inactive).

`ClC(Cl)(Cl)C(N1CCN(c2ccccc2)CC1)N1CCN(c2ccccc2)CC1`: the GI50 in assay [1] was > 100 µM (inactive); in assay [2], > 100 µM (inactive); in [4], greater than 100 µM; in assay [5], > 100 µM (inactive); in [6], > 100 µM (inactive); in assay [7], > 100 µM (inactive). For the same compound, the GI50 in assay [8], in assay [9], in assay [10], in assay [11], in [12] and in [13] was > 100 µM (inactive) in each case. Further, the GI50 in [18], in assay [14], in assay [15], in [19], in assay [20] and in assay [16] was > 100 µM (inactive) in each case. The GI50 in assay [17] was > 100 µM (inactive).

Regarding `Cc1ccc2c(=O)c(-c3nnsn3)c[nH]c2n1`, the GI50 is > 100 µM (inactive) in assay [1]; > 100 µM (inactive) in assay [2]; greater than 100 µM in assay [4]; > 100 µM (inactive) in assay [5]; > 100 µM (inactive) in assay [6]; > 100 µM (inactive) in assay [7]. Further, the GI50 in [8], in assay [9], in [10], in [11], in [12] and in [13] was > 100 µM (inactive) each time. Besides, the GI50 in assay [18], in assay [14], in assay [15], in assay [20], in assay [16] and in assay [17] was > 100 µM (inactive) throughout.

On to `c1cc(CCN2CCCCC2)ccn1`, for which the GI50 in [1] is > 100 µM (inactive); in [2] it was > 100 µM (inactive); in assay [4], greater than 100 µM; in [5], > 100 µM (inactive); in assay [6], > 100 µM (inactive); in [7] it was > 100 µM (inactive). Further, the GI50 in assay [8], in assay [9], in assay [10], in assay [11], in assay [12] and in [13] was > 100 µM (inactive) throughout. For the same compound, the GI50 in assay [18], in assay [14], in assay [15], in [19], in assay [20] and in [16] was > 100 µM (inactive) each time. Besides, the GI50 in [17] is > 100 µM (inactive).

For the compound `CN1CC(c2ccccc2)=CC2=C1C=CC(=N)/C2=N\N`, the GI50 in assay [1] is > 100 µM (inactive); in assay [2] it was 52.2 µM (inactive); in assay [3], > 100 µM (inactive); in assay [4] it was greater than 100 µM; in [5], > 100 µM (inactive); in assay [6], > 100 µM (inactive). The GI50 in assay [7] was > 100 µM (inactive); in assay [8], > 100 µM (inactive); in assay [9] it was 42.3 µM (inactive); in assay [10], > 100 µM (inactive); in [11], > 100 µM (inactive); in assay [12] it was 47.1 µM (inactive). Moreover, the GI50 in [13] is > 100 µM (inactive); in assay [14] it was > 100 µM (inactive); in assay [15] it was 48.2 µM (inactive); in assay [19], 20.9 µM (inactive); in assay [20], > 100 µM (inactive); in assay [16], > 100 µM (inactive). Besides, the GI50 in assay [17] is > 100 µM (inactive).

On to `COc1ccc(/C=C2\CN(C)Cc3c2nc(O)c(C#N)c3-c2ccc(OC)cc2)cc1`, for which the GI50 in assay [1] is > 100 µM (inactive); in assay [2], > 100 µM (inactive); in [4], 64.9 µM; in assay [5], 38.5 µM (inactive); in assay [6] it was 50 µM (inactive); in assay [7] it was 92.7 µM (inactive). Further, the GI50 in [8] was 47.2 µM (inactive); in assay [9] it was 12.5 µM (inactive); in [10] it was 29.6 µM (inactive); in assay [11] it was 48.8 µM (inactive); in assay [12], 56.2 µM (inactive); in assay [13], 31.3 µM (inactive). Besides, the GI50 is 24.3 µM (inactive) in [18]; > 100 µM (inactive) in assay [14]; 94 µM (inactive) in assay [15]; 43.4 µM (inactive) in [20]; > 100 µM (inactive) in assay [16]; > 100 µM (inactive) in assay [17].

With `N=c1nc(N)nc(N)n1-c1ccc(S(N)(=O)=O)cc1`, the GI50 in [1] is > 100 µM (inactive); in assay [2] it was > 100 µM (inactive); in assay [4], greater than 100 µM; in [5], > 100 µM (inactive); in assay [6] it was > 100 µM (inactive); in assay [7], > 100 µM (inactive). Further, the GI50 in [8], in assay [9], in assay [10], in [11], in [12] and in [13] was > 100 µM (inactive) each time. The GI50 in [18], in [14], in assay [15], in assay [20], in [16] and in [17] was > 100 µM (inactive) each time.

Regarding `COc1cc(Oc2nc3cc(F)c(F)cc3nc2-c2ccccc2)cc(OC)c1OC`, the GI50 is 43.5 µM (inactive) in assay [1]; > 100 µM (inactive) in assay [2]; 51.9 µM in assay [4]; 89.3 µM (inactive) in assay [5]; > 100 µM (inactive) in assay [6]; 81.8 µM (inactive) in assay [7]. Also, the GI50 in assay [8] was > 100 µM (inactive); in assay [9], 32 µM (inactive); in assay [10], 63.8 µM (inactive); in [11], 13.9 µM (inactive); in assay [12], > 100 µM (inactive); in assay [13], > 100 µM (inactive). Also, the GI50 in assay [18] is > 100 µM (inactive); in [14] it was > 100 µM (inactive); in assay [15], > 100 µM (inactive); in assay [19], 20.4 µM (inactive); in [20], 68.2 µM (inactive); in assay [16], 25.8 µM (inactive). The GI50 in [17] was 73.6 µM (inactive).

As to `O=C(O)CCCOc1cc(-c2ccccc2F)nc2cc3c(cc12)OCO3`, the GI50 in [2] was 29.8 µM (inactive); in assay [3] it was 46.1 µM (inactive); in assay [4], 27.9 µM; in [5], 4.54 µM (inactive); in assay [6], 2.58 µM (inactive); in [7], 4.51 µM (inactive). Besides, the GI50 in assay [8] is 1.72 µM (inactive); in assay [9] it was 7.38 µM (inactive); in assay [12] it was 4.65 µM (inactive); in assay [13], 5.66 µM (inactive); in assay [14] it was 7.89 µM (inactive); in assay [15] it was 4.99 µM (inactive). Moreover, the results for the GI50 in [19], in [20] and in assay [16] were 6.56 µM (inactive), > 100 µM (inactive) and 6.17 µM (inactive), respectively.

Turning to `CC(=O)Nc1ccc(S(=O)(=O)Nc2nc(-c3ccc(Cl)cc3)cc(N3N=C(c4ccc(Br)cc4)CC3c3ccccc3)n2)cc1` (centres undefined), the GI50 in assay [1] is 24.5 µM (inactive); in assay [2] it was 17.8 µM (inactive); in assay [4] it was 15.7 µM; in assay [5], 15 µM (inactive); in [6] it was 11.8 µM (inactive); in assay [7] it was 15.9 µM (inactive). Besides, the GI50 in assay [8] was 5.51 µM (inactive); in [9], 16.1 µM (inactive); in assay [10] it was 16.9 µM (inactive); in assay [11], 14.8 µM (inactive); in [12], 17.1 µM (inactive); in assay [13], 17.9 µM (inactive). Further, the GI50 in assay [18] was 13.8 µM (inactive); in [14], 18.6 µM (inactive); in [15], 14.7 µM (inactive); in assay [20] it was 14 µM (inactive); in [16], 12.6 µM (inactive); in assay [17] it was 15.4 µM (inactive).
